Source: ChEMBL document CHEMBL1135514, “Structure-based approach for binding site identification on AmpC beta-lactamase” (J Med Chem, 2002)

Molecular target: Beta-lactamase (Escherichia coli K-12, UniProt P00811)
Assay: Binding affinity towards AmpC beta-lactamase binding site from Escherichia coli

Sequence of Beta-lactamase (P00811 whole entry): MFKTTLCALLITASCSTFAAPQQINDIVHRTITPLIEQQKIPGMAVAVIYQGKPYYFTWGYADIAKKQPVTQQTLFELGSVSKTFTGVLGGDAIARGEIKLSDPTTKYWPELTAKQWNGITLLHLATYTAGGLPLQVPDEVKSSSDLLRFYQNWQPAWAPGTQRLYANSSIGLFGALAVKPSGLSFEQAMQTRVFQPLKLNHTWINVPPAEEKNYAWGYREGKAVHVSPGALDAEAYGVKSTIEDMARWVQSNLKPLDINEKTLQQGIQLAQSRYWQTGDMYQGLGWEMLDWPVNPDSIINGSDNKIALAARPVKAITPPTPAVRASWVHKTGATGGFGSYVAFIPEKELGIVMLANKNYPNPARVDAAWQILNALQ

Ki: 20 nM
SMILES: CC(C)(O/N=C(/C(=O)NCB(O)O)c1csc(N)n1)C(=O)O
